From patent US8354436B2 (4SC Discovery GmbH, priority 2011, dated 2013)
Read-outs that look alike come from different tables or passages of the source.

Experiments:
Assay type in all cases: cell-based
Details in all cases: 48 hours
IFN-γ = IFN-γ production by PHA-stimulated human PBMC (OptEIA human IFN-g ELISA)
Outline: (§1)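 Healthy-donor PBMC (1×10^5 cells/well) were activated with 2 μg/ml PHA and cultured with test compounds for 48 hours; cytokines were then quantified in supernatants by the respective immunoassay. Screening used 10, 1, 0.1 and 0.01 μM; IC50 came from semilogarithmic compound titration.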

IL-17FF = IL-17FF production by PHA-stimulated human PBMC (human IL-17F ELI-Pair)
Outline: as §1

[1] = test system: PBMC from healthy human donors; assay: T cell proliferation assay (PHA-stimulated human PBMC, BrdU ELISA)
Outline: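 Proliferation was quantified by BrdU ELISA 48 hours after starting culture of 1×10⁵ human PBMC per well with test compound and 2 μg/ml phytohaemagglutinin. Cells came from healthy donors via Ficoll separation and were kept in RPMI1640 with 10% dialysed heat-inactivated FCS.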

[2] = human PBMC, 2 μg/ml PHA, read-out: C: IC50 (IFNγ)
[3] = human PBMC, 2 μg/ml PHA, read-out: B: IC50 (IL-17FF)
[4] = human PBMC, 2 μg/ml PHA, read-out: D: IC50 (Tcell proliferation)
[5] = PHA-stimulated human PBMC, column C, read-out: IC50 (IFNγ)
[6] = PHA-stimulated human PBMC, column B, read-out: IC50 (IL-17FF)
[7] = PHA-stimulated human PBMC, column D, read-out: IC50 (Tcell proliferation)

Row | SMILES | IC50 (IFN-γ; [2]) [nM] | IC50 (IL-17FF; [3]) [nM] | IC50 [1, 4] [nM] | IC50 (IFN-γ; [5]) [nM] | IC50 (IL-17FF; [6]) [nM] | IC50 [1, 7] [nM]
1 | Cc1nnc(-c2c(-c3c(F)cccc3Cl)noc2-c2cnn(-c3ccncc3)c2C(F)(F)F)o1 [Example B-19, 2-(3-(2-chloro-6-fluorophenyl)-5-(1-(pyridin-4-yl)-5-(trifluoromethyl)-1H-pyrazol-4-yl)isoxazol-4-yl)-5-methyl-1,3,4-oxadiazole] | 100 to 1000 | 100 to 1000 | 100 to 1000 |  |  | 
2 | Cc1nnc(-c2c(-c3c(F)cccc3Cl)noc2-c2cnn(-c3cccc(S(N)(=O)=O)c3)c2C(F)(F)F)s1 [Example B-23, 3-(4-(3-(2-chloro-6-fluorophenyl)-4-(5-methyl-1,3,4-thiadiazol-2-yl)isoxazol-5-yl)-5-(trifluoromethyl)-1H-pyrazol-1-yl)benzenesulfonamide] | 1000 to 10000 | 1000 to 10000 | 1000 to 10000 |  |  | 
3 | Cc1nnc(-c2c(-c3c(F)cccc3Cl)noc2-c2cnn(-c3ccccc3Cl)c2C(F)(F)F)s1 [Example B-20, 3-(2-chloro-6-fluorophenyl)-5-(1-(2-chlorophenyl)-5-(trifluoromethyl)-1H-pyrazol-4-yl)-4-(5-methyl-1,3,4-thiadiazol-2-yl)isoxazole] | 100 to 1000 | 100 to 1000 | 100 to 1000 |  |  | 
4 | CN1CCN(C(=O)c2c(-c3c(F)cccc3Cl)noc2-c2cnn(-c3ccccc3F)c2C(F)(F)F)CC1 [Example I-17, (3-(2-chloro-6-fluorophenyl)-5-(1-(2-fluorophenyl)-5-(trifluoromethyl)-1H-pyrazol-4-yl)isoxazol-4-yl)(4-methylpiperazin-1-yl)methanone] |  |  |  | 100 to 1000 | 100 to 1000 | 1000 to 10000
5 | CON(C)C(=O)c1c(-c2c(F)cccc2Cl)noc1-c1cnn(-c2ccccc2Cl)c1C(F)(F)F [IB-51, 3-(2-chloro-6-fluorophenyl)-5-(1-(2-chlorophenyl)-5-(trifluoromethyl)-1H-pyrazol-4-yl)-N-methoxy-N-methylisoxazole-4-carboxamide] |  |  |  | 1000 to 10000 | 1000 to 10000 | 1000 to 10000
6 | COC(=O)Nc1c(-c2c(F)cccc2Cl)noc1-c1cnn(-c2cccc(F)c2)c1C(F)(F)F [Example I-138, methyl 3-(2-chloro-6-fluorophenyl)-5-[1-(3-fluorophenyl)-5-(trifluoromethyl)-1H-pyrazol-4-yl]isoxazol-4-ylcarbamate] |  |  |  | 100 to 1000 | 100 to 1000 | 100 to 1000
7 | COC(=O)c1c(-c2c(F)cccc2Cl)noc1-c1cnn(C(C)C)c1C(F)(F)F [Example I-66, methyl 3-(2-chloro-6-fluorophenyl)-5-(1-isopropyl-5-(trifluoromethyl)-1H-pyrazol-4-yl)isoxazole-4-carboxylate] |  |  |  | 100 to 1000 | 1000 to 10000 | 1000 to 10000
8 | COCCn1ncc(-c2onc(-c3c(F)cccc3Cl)c2C(=O)OC)c1C(F)(F)F [Example I-102, methyl 3-(2-chloro-6-fluorophenyl)-5-(1-(2-methoxyethyl)-5-(trifluoromethyl)-1H-pyrazol-4-yl)isoxazole-4-carboxylate] |  |  |  | 1000 to 10000 | 1000 to 10000 | 100 to 1000
9 | CCOC(=O)c1c(-c2ccncc2F)noc1-c1cnn(-c2ccccn2)c1C(F)(F)F [IB-8] |  |  |  | 1000 to 10000 | 1000 to 10000 | 1000 to 10000
10 | COC(=O)c1c(-c2c(F)cccc2Cl)noc1-c1cnn(-c2cc(C)nc(C)n2)c1C(F)(F)F [Example I-119, methyl 3-(2-chloro-6-fluorophenyl)-5-(1-(2,6-dimethylpyrimidin-4-yl)-5-(trifluoromethyl)-1H-pyrazol-4-yl)isoxazole-4-carboxylate] |  |  |  | 100 to 1000 | 100 to 1000 | 100 to 1000
11 | CCOC(=O)c1c(-c2c(Cl)cncc2Cl)noc1-c1cnn(-c2ccccc2Cl)c1C(F)(F)F [IB-16, ethyl 5-(1-(2-chlorophenyl)-5-(trifluoromethyl)-1H-pyrazol-4-yl)-3-(3,5-dichloropyridin-4-yl)isoxazole-4-carboxylate] |  |  |  | 1000 to 10000 | 100 to 1000 | 1000 to 10000
